# Experimental data published in ChEMBL document CHEMBL4038272, “Synthesis and biological evaluation of novel podophyllotoxin-NSAIDs conjugates as multifunctional anti-MDR agents against resistant human hepatocellular carcinoma Bel-7402/5-FU cells” (Eur J Med Chem, 2017).
# Calls of active or inactive are those of the source. No cut-off for these calls is given here.
# How the values were obtained:
# Bel7402/5-FU [1] = assay: Induction of apoptosis in human Bel7402/5-FU cells assessed as live cells at 2 uM after 48 hrs by Annexin V-APC/7-AAD staining based flow cytometry (reference value: 91.08%); assay type: functional
# Bel7402/5-FU [2] = assay: Induction of apoptosis in human Bel7402/5-FU cells at 2 uM after 24 hrs by Hoechst 33342 staining based fluorescent microscopic method; assay type: functional, cell-based
# Bel7402/5-FU [3] = assay: Reduction in microtubule density in human Bel7402/5-FU cells at 2 uM after 24 to 48 hrs by DAPI staining based immunofluorescence microscopic method; assay type: functional, cell-based
# [4] = Resistant factor, ratio of IC50 for human Bel7402/5-FU cells to IC50 for human Bel7402 cells; assay type: functional
# Bel7402/5-FU [5] = assay: Induction of apoptosis in human Bel7402/5-FU cells assessed as ratio of cleaved PARP to beta-actin level at 2 uM after 48 hrs by Western blot analysis (reference value: 0.2); assay type: functional
# Bel7402/5-FU [6] = assay: Induction of apoptosis in human Bel7402/5-FU cells assessed as morphological changes at 2 uM after 24 hrs by Hoechst 33342 staining based fluorescent microscopic method; assay type: functional, cell-based
# Bel7402/5-FU [7] = assay: Induction of apoptosis in human Bel7402/5-FU cells assessed as ratio of cleaved caspase-8 to beta-actin level at 2 uM after 48 hrs by Western blot analysis (reference value: 0.17); assay type: functional
# Bel7402/5-FU [8] = assay: Induction of apoptosis in human Bel7402/5-FU cells assessed as ratio of cleaved caspase-3 to beta-actin level at 2 uM after 48 hrs by Western blot analysis (reference value: 0.19); assay type: functional
# [9] = target: RAC-alpha serine/threonine-protein kinase (Homo sapiens) (UniProt P31749); assay: Effect on AKT phosphorylation in human Bel7402/5-FU cells assessed as ratio of phosphorylated AKT to beta-actin level at 2 uM after 48 hrs by Western blot analysis (reference value: 0.39); assay type: cell-based
# RAC-alpha serine/threonine-protein kinase (Homo sapiens), sequence (P31749 whole entry): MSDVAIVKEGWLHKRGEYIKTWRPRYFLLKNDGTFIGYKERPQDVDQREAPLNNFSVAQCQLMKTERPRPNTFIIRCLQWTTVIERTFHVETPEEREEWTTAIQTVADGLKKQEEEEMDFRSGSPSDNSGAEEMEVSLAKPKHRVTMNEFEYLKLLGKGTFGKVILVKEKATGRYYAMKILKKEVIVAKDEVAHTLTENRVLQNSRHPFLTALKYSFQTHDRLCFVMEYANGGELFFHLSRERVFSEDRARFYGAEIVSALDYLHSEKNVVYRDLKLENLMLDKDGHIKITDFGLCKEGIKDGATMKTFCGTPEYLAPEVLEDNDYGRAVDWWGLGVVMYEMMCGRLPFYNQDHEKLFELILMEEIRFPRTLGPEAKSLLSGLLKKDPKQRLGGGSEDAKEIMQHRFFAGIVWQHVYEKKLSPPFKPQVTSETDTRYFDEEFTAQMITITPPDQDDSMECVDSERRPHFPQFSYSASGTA
# Bel7402/5-FU [10] = assay: Induction of apoptosis in human Bel7402/5-FU cells assessed as condensed nuclei at 2 uM after 24 hrs by Hoechst 33342 staining based fluorescent microscopic method; assay type: functional, cell-based
# Bel7402/5-FU [11] = assay: Induction of apoptosis in human Bel7402/5-FU cells assessed as necrotic cells at 2 uM after 48 hrs by Annexin V-APC/7-AAD staining based flow cytometry (reference value: 0.58%); assay type: functional
# Bel7402/5-FU [12] = assay: Effect on MMP2 expression in human Bel7402/5-FU cells assessed as ratio of MMP2 to beta-actin level at 2 uM after 48 hrs by Western blot analysis (reference value: 0.3); assay type: functional
# Bel7402/5-FU [13] = assay: Cell cycle arrest in human Bel7402/5-FU cells assessed as accumulation at S phase at 2 uM after 48 hrs by propidium iodide staining based flow cytometry (reference value: 12.62%); assay type: functional
# Bel7402/5-FU [14] = assay: Cell cycle arrest in human Bel7402/5-FU cells assessed as accumulation at G2 phase at 2 uM after 48 hrs by propidium iodide staining based flow cytometry (reference value: 35.16%); assay type: functional
# [15] = target: Signal transducer and activator of transcription 3 (Homo sapiens) (UniProt P40763); assay: Effect on STAT3 phosphorylation in human Bel7402/5-FU cells assessed as ratio of phosphorylated STAT3 to beta-actin level at 2 uM after 48 hrs by Western blot analysis (reference value: 0.3); assay type: cell-based
# Signal transducer and activator of transcription 3 (Homo sapiens), sequence (P40763 whole entry): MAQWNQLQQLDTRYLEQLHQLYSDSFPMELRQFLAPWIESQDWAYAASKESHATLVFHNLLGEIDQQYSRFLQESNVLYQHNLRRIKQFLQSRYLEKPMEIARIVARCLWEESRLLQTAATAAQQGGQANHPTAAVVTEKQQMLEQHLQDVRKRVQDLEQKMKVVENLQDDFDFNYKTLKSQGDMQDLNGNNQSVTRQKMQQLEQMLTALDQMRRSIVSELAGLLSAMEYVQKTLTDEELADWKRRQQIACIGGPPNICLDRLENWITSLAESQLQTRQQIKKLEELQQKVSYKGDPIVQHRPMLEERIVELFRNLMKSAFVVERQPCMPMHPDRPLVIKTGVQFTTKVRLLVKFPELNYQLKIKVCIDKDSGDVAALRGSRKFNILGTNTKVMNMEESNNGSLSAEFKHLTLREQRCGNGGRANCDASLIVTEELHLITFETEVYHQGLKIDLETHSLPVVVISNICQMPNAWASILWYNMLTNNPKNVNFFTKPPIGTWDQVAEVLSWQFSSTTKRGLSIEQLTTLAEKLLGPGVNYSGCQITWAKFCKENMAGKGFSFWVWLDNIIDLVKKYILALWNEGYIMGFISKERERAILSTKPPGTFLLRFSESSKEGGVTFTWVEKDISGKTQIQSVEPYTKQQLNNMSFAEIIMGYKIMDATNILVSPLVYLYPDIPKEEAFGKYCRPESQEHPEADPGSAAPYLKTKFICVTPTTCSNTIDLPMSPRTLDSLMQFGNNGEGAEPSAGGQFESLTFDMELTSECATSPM
# Bel7402/5-FU [16] = assay: Effect on VEGFR2 expression in human Bel7402/5-FU cells assessed as ratio of VEGFR2 to beta-actin level at 2 uM after 48 hrs by Western blot analysis (reference value: 0.25); assay type: functional
# Bel7402/5-FU [17] = assay: Effect on iNOS expression in human Bel7402/5-FU cells assessed as ratio of iNOS to beta-actin level at 2 uM after 48 hrs by Western blot analysis (reference value: 0.13); assay type: functional
# Bel7402/5-FU [18] = assay: Effect on CDK2 expression in human Bel7402/5-FU cells assessed as ratio of CDK2 to beta-actin level at 2 uM after 48 hrs by Western blot analysis (reference value: 0.43); assay type: functional
# Bel7402/5-FU [19] = assay: Effect on cyclinA expression in human Bel7402/5-FU cells assessed as ratio of cyclinA to beta-actin level at 2 uM after 48 hrs by Western blot analysis (reference value: 0.39); assay type: functional
# Bel7402/5-FU [20] = assay: Antimigratory activity in human Bel7402/5-FU cells at 2 uM after 24 hrs by wound healing assay; assay type: functional, cell-based
# Bel7402/5-FU [21] = assay: Effect on COX2 expression in human Bel7402/5-FU cells assessed as ratio of COX2 to beta-actin level at 2 uM after 48 hrs by Western blot analysis (reference value: 0.36); assay type: functional
# Bel7402/5-FU [22] = assay: Effect on P-gp expression in human Bel7402/5-FU cells assessed as ratio of P-gp to beta-actin level at 2 uM after 48 hrs by Western blot analysis (reference value: 0.59); assay type: functional
# Bel7402/5-FU [23] = assay: Effect on CDK1 expression in human Bel7402/5-FU cells assessed as ratio of CDK1 to beta-actin level at 2 uM after 48 hrs by Western blot analysis (reference value: 0.33); assay type: functional
# Bel7402/5-FU [24] = assay: Effect on E-cadherin expression in human Bel7402/5-FU cells assessed as ratio of E-cadherin to beta-actin level at 2 uM after 48 hrs by Western blot analysis (reference value: 0.2); assay type: functional
# Bel7402/5-FU [25] = assay: Effect on COX1 expression in human Bel7402/5-FU cells assessed as ratio of COX1 to beta-actin level at 2 uM after 48 hrs by Western blot analysis (reference value: 0.48); assay type: functional
# Bel7402/5-FU [26] = assay: Antiproliferative activity against human Bel7402/5-FU cells after 72 hrs by CCK-8 assay; assay type: functional, cell-based
# Bel7402/5-FU [27] = assay: Induction of apoptosis in human Bel7402/5-FU cells assessed as late apoptotic cells at 2 uM after 48 hrs by Annexin V-APC/7-AAD staining based flow cytometry (reference value: 3%); assay type: functional
# Bel7402/5-FU [28] = assay: Cell cycle arrest in human Bel7402/5-FU cells assessed as accumulation at G1 phase at 2 uM after 48 hrs by propidium iodide staining based flow cytometry (reference value: 52.21%); assay type: functional
# [29] = target: Mitogen-activated protein kinase; ERK1/ERK2 (Homo sapiens) (UniProt P27361+P28482); assay: Effect on ERK1/2 phosphorylation in human Bel7402/5-FU cells assessed as ratio of phosphorylated ERK1/2 to beta-actin level at 2 uM after 48 hrs by Western blot analysis (reference value: 0.59); assay type: cell-based
# Mitogen-activated protein kinase; ERK1/ERK2 (Homo sapiens), sequence (P27361 whole entry, looked up): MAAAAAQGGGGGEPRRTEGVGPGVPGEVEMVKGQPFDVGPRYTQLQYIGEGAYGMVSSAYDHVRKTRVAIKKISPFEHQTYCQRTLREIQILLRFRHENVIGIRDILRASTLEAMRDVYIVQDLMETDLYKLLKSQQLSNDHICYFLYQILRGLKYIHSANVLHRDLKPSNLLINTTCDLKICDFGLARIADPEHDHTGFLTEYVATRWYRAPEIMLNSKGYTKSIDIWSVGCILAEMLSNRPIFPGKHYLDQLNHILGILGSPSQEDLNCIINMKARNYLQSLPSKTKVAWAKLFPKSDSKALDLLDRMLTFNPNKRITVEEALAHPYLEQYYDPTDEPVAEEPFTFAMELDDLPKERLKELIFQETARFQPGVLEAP
# Mitogen-activated protein kinase; ERK1/ERK2 (Homo sapiens), sequence (P28482 whole entry, looked up): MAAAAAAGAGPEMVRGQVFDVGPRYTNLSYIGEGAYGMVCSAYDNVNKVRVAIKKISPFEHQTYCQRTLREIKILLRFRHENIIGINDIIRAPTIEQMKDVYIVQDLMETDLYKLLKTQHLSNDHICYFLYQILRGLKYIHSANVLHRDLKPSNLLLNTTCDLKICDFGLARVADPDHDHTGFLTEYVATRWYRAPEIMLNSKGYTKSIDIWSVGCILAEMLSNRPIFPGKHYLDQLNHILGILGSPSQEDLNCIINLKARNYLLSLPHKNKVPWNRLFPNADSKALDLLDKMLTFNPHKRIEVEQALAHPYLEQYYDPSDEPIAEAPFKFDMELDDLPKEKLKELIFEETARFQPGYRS
# Bel7402/5-FU [30] = assay: Induction of apoptosis in human Bel7402/5-FU cells assessed as early apoptotic cells at 2 uM after 48 hrs by Annexin V-APC/7-AAD staining based flow cytometry (reference value: 5.24%); assay type: functional
# Bel7402/5-FU [31] = assay: Induction of microtubule disruption in human Bel7402/5-FU cells at 2 uM after 24 to 48 hrs by DAPI staining based immunofluorescence microscopic method; assay type: functional, cell-based
# Bel7402/5-FU [32] = assay: Effect on cyclinB1 expression in human Bel7402/5-FU cells assessed as ratio of cyclinB1 to beta-actin level at 2 uM after 48 hrs by Western blot analysis (reference value: 0.53); assay type: functional
# Bel7402/5-FU [33] = assay: Induction of apoptosis in human Bel7402/5-FU cells assessed as reduction in cell number at 2 uM after 24 hrs by Hoechst 33342 staining based fluorescent microscopic method; assay type: functional
# L02 = assay: Antiproliferative activity against human LO2 cells after 72 hrs by CCK-8 assay; assay type: cell-based; details: L02, 72 h
# Bel7402/5-FU [34] = assay: Induction of apoptosis in human Bel7402/5-FU cells assessed as ratio of cleaved caspase-9 to beta-actin level at 2 uM after 48 hrs by Western blot analysis (reference value: 0.17); assay type: functional
# Bel-7402 = assay: Antiproliferative activity against human Bel7402 cells after 72 hrs by CCK-8 assay; assay type: functional, cell-based; details: Bel-7402, 72 h
# Bel7402/5-FU [35] = assay: Effect on MRP1 expression in human Bel7402/5-FU cells assessed as ratio of MRP1 to beta-actin level at 2 uM after 48 hrs by Western blot analysis (reference value: 0.58); assay type: functional
structure (smiles),measurement,setting,value
COc1ccc2c(c1)c(CC(=O)O[C@H]1c3cc4c(cc3[C@@H](c3cc(OC)c(OC)c(OC)c3)[C@H]3C(=O)OC[C@@H]31)OCO4)c(C)n2C(=O)c1ccc(Cl)cc1,Activity,Bel7402/5-FU [1],66.98%
same,Activity,Bel7402/5-FU [2],Active
same,Activity,Bel7402/5-FU [3],Active
same,Ratio IC50,[4],0.36
same,Ratio,Bel7402/5-FU [5],0.35
same,Activity,Bel7402/5-FU [6],Active
same,Ratio,Bel7402/5-FU [7],0.33
same,Ratio,Bel7402/5-FU [8],0.45
same,Ratio,[9],0.4
same,Activity,Bel7402/5-FU [10],Active
same,Activity,Bel7402/5-FU [11],7.18%
same,Ratio,Bel7402/5-FU [12],0.28
same,Activity,Bel7402/5-FU [13],21.81%
same,Activity,Bel7402/5-FU [14],51.09%
same,Ratio,[15],0.37
same,Ratio,Bel7402/5-FU [16],0.17
same,Ratio,Bel7402/5-FU [17],0.12
same,Ratio,Bel7402/5-FU [18],0.37
same,Ratio,Bel7402/5-FU [19],0.26
same,Activity,Bel7402/5-FU [20],Active
same,Ratio,Bel7402/5-FU [21],0.36
same,Ratio,Bel7402/5-FU [22],0.63
same,Ratio,Bel7402/5-FU [23],0.3
same,Ratio,Bel7402/5-FU [24],0.2
same,Ratio,Bel7402/5-FU [25],0.42
same,IC50,Bel7402/5-FU [26],2160 nM
same,Activity,Bel7402/5-FU [27],20.65%
same,Activity,Bel7402/5-FU [28],27.1%
same,Ratio,[29],0.54
same,Activity,Bel7402/5-FU [30],5.19%
same,Activity,Bel7402/5-FU [31],Active
same,Ratio,Bel7402/5-FU [32],0.51
same,Activity,Bel7402/5-FU [33],Active
same,IC50,L02,1860 nM
same,Ratio,Bel7402/5-FU [34],0.33
same,IC50,Bel-7402,5900 nM
same,Ratio,Bel7402/5-FU [35],0.39
